Literature values, collected in patent US20070020177A1, “Radiometal complex compositions” (priority 2003, published 2007).

^99mTc-TRODAT-1
stable at room temperature (Fan et al): 24 h
radiochemical purity reached by kit (minimum of 10 μg tropane conjugate in the kit, autoclave heating 30 minutes, Choi et al): greater than 90%
